Patent US20230100838A1 (Revolution Medicines, Inc., priority 2019, published 2023)

Key:
Assay type in all cases: binding
K-Ras G12S = K-Ras G12S (Homo sapiens, UniProt P01116, G12S); test: K-Ras G12S cross-linking assay (comparable procedure, conjugate formation, TOF mass spectrometry); design: key: 0: No observed x-linking
Method in brief: (§1)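 5 μM protein (final, from 50 μM) in HEPES/NaCl/MgCl2 buffer pH 7.4 with compound typically at 2, 10 and 25 μM, room temperature, 1 and 24 h endpoints; formic acid quench. Intact-protein LC–TOF MS; percent modification is covalent adduct peak height over total K-Ras peak height.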

[1] = biological target: T1, GDP-loaded K-Ras (1-169) C51S, C80L, C118S (Homo sapiens, UniProt P01116, C118S/C51S/C80L); test: K-Ras WT (GDP) cross-linking assay (conjugate formation, TOF mass spectrometry); design: key: 0: No observed x-linking; +: 0 < x ≤ 20; ++: 20 < x ≤ 40; +++: 40 < x ≤ 100; conditions: percent covalently modified K-Ras by MS, room temperature, typical compound conc. 2, 10, 25 μM, endpoints 1 and 24 h
T1 construct: GDP-loaded K-Ras (1-169) C51S, C80L, C118S
Method in brief: as §1

[2] = biological target: T2, GDP-loaded K-Ras (1-169) G12D, C51S, C80L, C118S (Homo sapiens, UniProt P01116, C118S/C51S/C80L/G12D); test: K-Ras G12D(GDP) cross-linking assay (conjugate formation, TOF mass spectrometry); design: key: 0: No observed x-linking; +: 0 < x ≤ 20; ++: 20 < x ≤ 40; +++: 40 < x ≤ 100; conditions: percent covalently modified K-Ras by MS, room temperature, typical compound conc. 2, 10, 25 μM, endpoints 1 and 24 h
T2 construct: GDP-loaded K-Ras (1-169) G12D, C51S, C80L, C118S
Method in brief: as §1

[3] = Table 4, percent covalently modified K-Ras by MS
[4] = Table 5, percent covalently modified K-Ras by MS

Compound	G12S x-linking (%) (K-Ras G12S; [3])	WT x-linking (%) ([1]; Table 4)	G12D x-linking (%) ([2]; Table 4)	G12S x-linking (%) (K-Ras G12S; [4])	WT x-linking (%) ([1]; Table 5)	G12D x-linking (%) ([2]; Table 5)
CCCN=C=NCCCN(C)c1nc(OC[C@@H]2CCCN2C)nc2c1CCN(c1cccc3cccc(C)c13)C2 [Example 30, N-methyl-7-(8-methylnaphthalen-1-yl)-2-(((S)-1-methylpyrrolidin-2-yl)methoxy)-N-(3-(((propylimino)methylene)amino)propyl)-5,6,7,8-tetrahydropyrido[3,4-d]pyrimidin-4-amine]	++ (10 < x ≤ 100)	++ (20 < x ≤ 100)	+++ (40 < x ≤ 100)			
COCCN=C=N[C@H]1CCN(c2nc(OC[C@@H]3CCCN3C)nc3c2CCN(c2cccc4cccc(C)c24)C3)C1 [Example 74, N-(2-methoxyethyl)-N—((S)-1-(7-(8-methylnaphthalen-1-yl)-2-(((S)-1-methylpyrrolidin-2-yl)methoxy)-5,6,7,8-tetrahydropyrido[3,4-d]pyrimidin-4-yl)pyrrolidin-3-yl)methanediimine]				++ (10 < x ≤ 100)	++ (20 < x ≤ 100)	+++ (40 < x ≤ 100)
COc1ccc(CN=C=NC2CCN(c3nc(OC[C@@H]4CCCN4C)nc4c3CCN(c3cccc5cccc(C)c35)C4)CC2)c(OC)c1 [Example 82, N-(2,4-dimethoxybenzyl)-N-(1-(7-(8-methylnaphthalen-1-yl)-2-(((S)-1-methylpyrrolidin-2-yl)methoxy)-5,6,7,8-tetrahydropyrido[3,4-d]pyrimidin-4-yl)piperidin-4-yl)methanediimine]				+ (0 < x ≤ 10)	+ (0 < x ≤ 20)	+ (0 < x ≤ 20)
Fc1ccccc1-c1c(Cl)cc2c(N3CCC(N=C=Nc4ccc(Cl)cc4)CC3)ncnc2c1F [Example 6, N-(1-(6-chloro-8-fluoro-7-(2-fluorophenyl)quinazolin-4-yl)piperidin-4-yl)-N-(4-chiorophenyl)methanediimine]	0	0	0			
Cc1cccc2cccc(N3CCc4c(nc(OC[C@@H]5CCCN5C)nc4N4CCC(N=C=NCCc5cccs5)CC4)C3)c12 [Example 95, N-(1-(7-(8-methylnaphthalen-1-yl)-2-(((S)-1-methylpyrrolidin-2-yl)methoxy)-5,6,7,8-tetrahydropyrido[3,4-d]pyrimidin-4-yl)piperidin-4-yl)-N-(2-(thiophen-2-yl)ethyl)methanediimine]				+ (0 < x ≤ 10)	+ (0 < x ≤ 20)	+ (0 < x ≤ 20)
COCCN=C=NCC1CCN(c2nc(=O)n(-c3c(C)ccnc3C(C)C)c3nc(-c4ccccc4F)c(F)cc23)CC1 [Example 70, 6-fluoro-7-(2-fluorophenyl)-1-(2-isopropyl-4-methylpyridin-3-yl)-4-(4-(((((2-methoxyethyl)imino)methylene)amino)methyl)piperidin-1-yl)pyrido[2,3-d]pyrimidin-2(1H)-one]				++ (10 < x ≤ 100)	++ (20 < x ≤ 100)	++ (20 < x ≤ 40)
Fc1ccccc1-c1c(Cl)cc2c(N3CCC(NC4=NCCO4)CC3)ncnc2c1F [Example 13, N-(1-(6-chloro-8-fluoro-7-(2-fluorophenyl)quinazolin-4-yl)piperidin-4-yl)-4,5-dihydrooxazol-2-amine]	+ (0 < x ≤ 10)	+ (0 < x ≤ 20)	+ (0 < x ≤ 20)			
Cc1cccc2cccc(N3CCc4c(nc(OC[C@@H]5CCCN5C)nc4N4CCC(N=C=NCc5cccs5)CC4)C3)c12 [Example 94, N-(1-(7-(8-methylnaphthalen-1-yl)-2-(((S)-1-methylpyrrolidin-2-yl)methoxy)-5,6,7,8-tetrahydropyrido[3,4-d]pyrimidin-4-yl)piperidin-4-yl)-N-(thiophen-2-ylmethyl)methanediimine]				+ (0 < x ≤ 10)	+ (0 < x ≤ 20)	+ (0 < x ≤ 20)
CCCN=C=NC1CCN(c2nc(=O)n(-c3c(C)ccnc3C(C)C)c3nc(-c4ccccc4F)c(F)cc23)CC1 [Example 53, 6-fluoro-7-(2-fluorophenyl)-1-(2-isopropyl-4-methylpyridin-3-yl)-4-(4-(((propylimino)methylene)amino)piperidin-1-yl)pyrido[2,3-d]pyrimidin-2(1H)-one]	+ (0 < x ≤ 10)	+ (0 < x ≤ 20)	+ (0 < x ≤ 20)			
Fc1ccccc1-c1c(Cl)cc2c(N3CCC(N=C=Nc4ccccc4)CC3)ncnc2c1F [Example 2, N-(1-(6-chloro-8-fluoro-7-(2-fluorophenyl)quinazolin-4-yl)piperidin-4-yl)-N-phenylmethanediimine]	+ (0 < x ≤ 10)	+ (0 < x ≤ 20)	+ (0 < x ≤ 20)			
O=C(NCCCl)NC1CCN(c2ncnc3c(F)c(-c4ccccc4F)c(Cl)cc23)CC1 [Example 10, 1-(1-(6-chloro-8-fluoro-7-(2-fluorophenyl)quinazolin-4-yl)piperidin-4-yl)-3-(2-chloroethyl)urea]	+ (0 < x ≤ 10)	+ (0 < x ≤ 20)	+ (0 < x ≤ 20)			
Cc1cccc2cccc(N3CCc4c(nc(OC[C@@H]5CCCN5C)nc4NCCN(C)C4=NCCO4)C3)c12 [Example 41, (S)—N^1-(4,5-dihydrooxazol-2-yl)-N^1-methyl-N^2-(7-(8-methylnaphthalen-1-yl)-2-((1-methylpyrrolidin-2-yl)methoxy)-5,6,7,8-tetrahydropyrido[3,4-d]pyrimidin-4-yl)ethane-1,2-diamine]	0	0	0			
COc1ccccc1CN=C=NC1CCN(c2nc(OC[C@@H]3CCCN3C)nc3c2CCN(c2cccc4cccc(C)c24)C3)CC1 [Example 81, N-(2-methoxybenzyl)-N-(1-(7-(8-methylnaphthalen-1-yl)-2-(((S)-1-methylpyrrolidin-2-yl)methoxy)-5,6,7,8-tetrahydropyrido[3,4-d]pyrimidin-4-yl)piperidin-4-yl)methanediimine]				+ (0 < x ≤ 10)	+ (0 < x ≤ 20)	+ (0 < x ≤ 20)
